Experimental data reported in patent publication US20220401406A1, “TOPICAL FORMULATIONS AND INSTILLATES, KITS, AND METHODS FOR TREATING INT[…], AND USES THEREOF” (VinSan Therapeutics Inc., priority 2019, published 2022).

Tests used:
Recalcitrant wounds = test: Further trials of topical formulations F21 to F30, nine patients; assay type: in vivo, human; details: use of the component in the formulations compared to no use of it
Procedure: Topical formulations were prepared in aliquots using the following proportions—in F21, F22, and F27 to F30, the specified amounts of CBD and THCa were supplied in 2 ml of total oil volume; in F23 and F24, the specified amount of THCa was supplied in 2 ml of total oil volume and the specified amount of CBD was supplied in 4 ml of total oil volume; in F25 and F26, the specified amount of CBD was supplied in 3 ml of total oil volume:
Recalcitrant wounds of nine were treated with Formulations F21 to F30. Formulations F21, F23, F25, F27 and F29, compounded in a mixture of hyaluronic acid and aloe vera gel, were applied to wound beds. Formulations F22, F24, F26, F28 and F30, compounded in liposomal base, were applied to periwound areas. […]

integumentary wound = test: General statements on tests of topical formulations on integumentary wounds; details: in vivo

`C=CC(C)(O)CCC=C(C)C` (stereo not drawn) [linalool] was tested, and the “more rapid closure of wounds (cm^2/day), average” value (Recalcitrant wounds) was 3.8 times.
In the case of `CCCCCc1cc2c(c(O)c1C(=O)O)[C@@H]1C=C(C)CC[C@H]1C(C)(C)O2` [THCa, tetrahydrocannabinolic acid], the “more rapid closure of wounds (cm^2/day), average” value (Recalcitrant wounds) is reported as 5.3 times and the “wound healing effects compared with decarboxylated tetrahydrocannabinol (THC)” value (integumentary wound) is reported as “better wound healing effects”.
